Measurements taken from publication PMC4623604, “Discovery of Small Molecules that Inhibit the Disordered Protein, p27^Kip1” (Scientific Reports, 2015).

What was measured:
p27-D2/Cdk2/cyclin A = biological target: T1, p27-D2/Cdk2/cyclin A (Homo sapiens, UniProt P46527); experiment: Cdk2/cyclin A kinase activity assay in the presence of p27-D2 (restoration of activity); format: biochemical
T1 construct: p27-D2 (residues 58-105 of human p27); 6xHis (N, cleaved yes); made in house; host or cells: E. coli for p27-D2
T1 sequence (P46527 58-105): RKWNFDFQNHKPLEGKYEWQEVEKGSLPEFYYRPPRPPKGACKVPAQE
Method: Figure 6 The small molecule SJ403 displaces p27-D2 from Cdk2/cyclin A and partially restores Cdk2 kinase activity. Analysis of Cdk2 kinase activity [within the Cdk2/cyclin A complex (200 pM) using Histone H1 as the substrate] in the presence of p27-D2 (200 nM) and varied concentrations of SJ403 (from 10 μM to 3 mM) (a) and varied concentrations of SJ403 alone (b). Cdk2 is partially active under the starting conditions in (a) and activity is enhanced through addition of SJ403. In the absence of p27-D2 (b), addition of SJ403 is associated with Cdk2 inhibition. All experiments were performed in triplicate and average values and the standard deviations of the means are shown.
Cdk2/Cyclin A (200 pM) was mixed with Histone H1 (15 μM; EMD Millipore), p27-D2 (200 nM) and varied amounts of lyophilized SJ403 and incubated overnight at 4 °C. The effect of the SJ403 compound on Cdk2 activity was determined by performing similar experiments in the absence of p27-D2. […] The reactions were quenched by addition of SDS-gel loading buffer (5 μL) and then analyzed by SDS-PAGE (10 μL). The gels were dried at 70 °C under vacuum and a phosphoimager (GE Healthcare, Piscataway, NJ) was used to quantify the ^32P-Histone H1 bands. IC50 values were determined by curve fitting using KaleidaGraph software. […]

Cdk2/cyclin A = biological target: T2, Cdk2/cyclin A (Homo sapiens, UniProt P24941); experiment: Cdk2/cyclin A kinase activity assay (Histone H1 substrate); format: biochemical; conditions: SJ403 alone, 10 μM to 3 mM, 200 pM Cdk2/cyclin A
T2 construct: Full length human Cdk2, active Cdk2 (phosphorylated at threonine 160); truncated human cyclin A (residues 173–432); made in house
Method: Cdk2/Cyclin A (200 pM) was mixed with Histone H1 (15 μM; EMD Millipore), p27-D2 (200 nM) and varied amounts of lyophilized SJ403 and incubated overnight at 4 °C. The effect of the SJ403 compound on Cdk2 activity was determined by performing similar experiments in the absence of p27-D2. Subsequently, ATP (50 μM total concentration, of which 6 μCi γ ^32P-ATP (PerkinElmer, Inc)) was added to each reaction and further incubated for 35 minutes at 30 °C. […] The sample buffer contained 20 mM HEPES pH 7.3, 25 mM sodium β-glycerolphosphate, 15 mM MgCl2, 16 mM EGTA, 0.5 mM Na3VO4 and 10 mM DTT. The reactions were quenched by addition of SDS-gel loading buffer (5 μL) and then analyzed by SDS-PAGE (10 μL). The gels were dried at 70 °C under vacuum and a phosphoimager (GE Healthcare, Piscataway, NJ) was used to quantify the ^32P-Histone H1 bands. IC50 values were determined by curve fitting using KaleidaGraph software. Experiments were performed in triplicate and mean IC50 and standard deviations of the mean values are reported.

p27-D2-FL/Cdk2/cyclin A = biological target: T3, p27-D2-FL/Cdk2/cyclin A (Homo sapiens, UniProt P46527, C99S/R93C); experiment: Fluorescence anisotropy displacement of p27-D2-FL from Cdk2/cyclin A; format: binding; conditions: 20 nM p27-D2-FL, 300 nM Cdk2/cyclin A, SJ403 0-3 mM; read-out: IC50, reduction of fluorescence anisotropy of p27-D2-FL (displacement from Cdk2/cyclin A)
T3 construct: p27-D2 (residues 58-105 of human p27); 6xHis (N, cleaved yes); made in house; host or cells: E. coli for p27-D2
T3 sequence (P46527 58-105 R93C/C99S): as the sequence (P46527 58-105) above, with R36C, C42S counted along it
From the text: We used the Group 2 molecule, SJ403 (Suppl. Table 1b), to test our hypothesis that molecules that bind to p27 can alter its Cdk regulatory function. […] We first used fluorescence anisotropy (FA) to monitor displacement of a single-cysteine (Cys) mutant of p27-D2, with arginine 93 mutated to Cys (R93C) and labeled with Alexa Fluor 488 (p27-D2-FL), from Cdk2/cyclin A by SJ403.
The p27-D2-C99S-R93C mutant was conjugated with Alexa Fluor488-C5-Maleimide (Life Technologies, p27-D2-FL) in buffer containing 20 mM Na phosphate, pH7.3, 20 mM NaCl according to the manufacturer’s protocol. The conjugated protein was further purified by reverse-phase high performance liquid chromatography (HPLC) using a C4 column (Vydac) and 0.1% trifluoroacetic acid-containing water/acetonitrile solvent system. Lyophilized HPLC fractions were resuspended in buffer containing 20 mM Na phosphate, pH 7, 200 mM NaCl, 3.5 mM TCEP. Fluorescence anisotropy measurements were performed at 25 °C on a Horiba Fluorolog 3 spectrofluorometer. Briefly, p27-D2-FL (20 nM) was mixed with Cdk2/Cyclin A (300 nM) and added to the required amount of lyophilized compound (SJ403). All samples have been incubated overnight in the dark at 4 °C prior to fluorescence measurements. Fluorescence anisotropy binding data was analyzed using KaleidaGraph. […]

CCn1c(C)c(C)n2c3c(=O)n(C)c(=O)n(C)c3nc12 [SJ403]
Cdk2 kinase activity after titration of SJ403 (of full kinase activity) (p27-D2/Cdk2/cyclin A; 200 nM p27-D2, 200 pM Cdk2/cyclin A, SJ403 10 μM to 3 mM, start 13%): ~ 20% | increase in Cdk2 kinase activity (p27-D2/Cdk2/cyclin A; from 13% to ~20% of full activity, 200 nM p27-D2): > 50% | effect on Cdk2/cyclin A activity in the absence of p27-D2 (Cdk2/cyclin A): substantially inhibited | IC50 (p27-D2-FL/Cdk2/cyclin A): 475 ± 67 µM
